Results from article PMC4703387, “Identification of the Calmodulin-Binding Domains of Fas Death Receptor” (PLoS ONE, 2016).
Where no end group is shown, it is not given here.

Tests used:
Ca^2+/CaM [1] = biological target: T1, Ca^2+/CaM (Homo sapiens, UniProt P0DP23); assay: NMR (HSQC, 3D 15N-edited HSQC-NOESY, TALOS+) of 15N-/13C-labeled Fas-Pep2; type: physicochemical
T1 construct: made in house
Procedure: (§1) NMR data were collected at 35°C on a Bruker Avance II (700 MHz ^1H) spectrometer equipped with a cryogenic triple-resonance probe, processed with NMRPIPE [35] and analyzed with NMRVIEW [36] or CCPN Analysis. […] For signal assignments of the complexes, ^13C-, ^15N-, or ^13C-/^15N-labeled Ca^2+/CaM at ~400–500 μM was mixed with unlabeled Fas-Pep1 (in 100% DMSO-d6) or Fas-Pep2 at 1.5:1 peptide:Ca^2+/CaM. […] The backbone atom resonances of Ca^2+/CaM complexes with Fas-Pep1 and Fas-Pep2 were assigned using HNCA, HN(CO)CA, HNCACB, HNCO, HN(CO)CACB and ^15N-edited NOESY-HSQC and TOCSY-HSQC experiments. These experiments have been also collected on ^15N-, or ^13C-/^15N-labeled Fas-Pep2 in complex with unlabeled Ca^2+/CaM to confirm the α-helical character of Fas-Pep2 when bound to Ca^2+/CaM. The chemical shifts of Ca^2+/CaM-bound Fas-Pep2 were used to predict its order parameters and secondary structure content in TALOS+.[38] Combined ^1H-^15N chemical shift changes were calculated as ΔδHN = [(ΔδH)^2+(ΔδN/5)^2]^1/2, where ΔδH and ΔδN are the ^1H and ^15N chemical shift changes, respectively. Kd values were calculated by non-linear least-square fitting algorithm in Origin software (OriginLab, Northampton, MA) using the equation: ΔδHN=ΔδHN^max((Kd+L0+P0)−((Kd+L0+P0)^2−4*P0*L0)^0.5)/(2*P0) where ΔδHN^max is the chemical shift change between complex and free protein, L0 total concentration of ligand, and P0 total concentration of protein.
Far-UV CD spectra of Ca^2+/CaM, Fas-Pep1, Fas-Pep2 and their complexes have been obtained to determine whether formation of the complexes induce any major changes in the secondary structures of the peptides and/or Ca^2+/CaM protein. […] The CD spectra of the complexes are similar to those of Ca^2+/CaM with features distinctive of an α-helical type. Relatively minor changes are observed in the CD signal of Ca^2+/CaM upon binding to FasDD peptides. […] Induction of the α-helical character of Fas-Pep2 upon binding to Ca^2+/CaM has been confirmed by NMR spectroscopy. […]

Ca^2+/CaM-C = biological target: T2, Ca^2+/CaM-C (Homo sapiens, UniProt P0DP23); assay: NMR titration (2D 1H-15N HSQC) of isolated C-terminal lobe; type: binding; conditions: 1H-15N HSQC titration
T2 construct: ^15N-labled samples of the isolated Ca^2+/CaM-N and Ca^2+/CaM-C domains; made in house
Procedure: as §1, with “The chemical shifts of Ca^2+/CaM-bound Fas-Pep2 were used to predict its order parameters and secondary structure content in TALOS+.[38]” left out, “protein. […]” for “protein.”

Ca^2+/CaM-N = biological target: T3, Ca^2+/CaM-N (Homo sapiens, UniProt P0DP23); assay: NMR titration (2D 1H-15N HSQC) of isolated N-terminal lobe; type: binding; conditions: 1H-15N HSQC titration
T3 construct: ^15N-labled samples of the isolated Ca^2+/CaM-N and Ca^2+/CaM-C domains; made in house
Procedure: as §1, with “The chemical shifts of Ca^2+/CaM-bound Fas-Pep2 were used to predict its order parameters and secondary structure content in TALOS+.[38]” left out, “protein. […]” for “protein.”

Ca^2+/CaM [2] = biological target: T1, Ca^2+/CaM; assay: Gel filtration assay of Ca^2+/CaM-peptide complexes; type: binding; conditions: HiLoad Superdex 75 (10/300 GL), 50 mM Tris (pH 7.0), 100 mM NaCl, 5 mM CaCl2
Procedure: The mobility of Ca^2+/CaM complexes with Fas-Pep1 and Fas-Pep2 was analyzed by a gel filtration assay. […] Protein fractions were analyzed by SDS-PAGE. A low molecular weight calibration kit (GE Healthcare) was used to determine the approximate molecular weight of complexes.
Fas-Pep2 has been expressed and purified as a fusion protein with SUMO (see Materials and Methods). Because of some technical difficulties during purification of a recombinant peptide, a synthetic Fas-Pep1 was used in this study. The solution properties of Fas-Pep1 and Fas-Pep2 and their complexes with Ca^2+/CaM were initially analyzed with size exclusion chromatography assay. Samples were run on a size exclusion column (Superdex 75) under identical buffer conditions. Sample concentrations were at ~50–100 μM. […] Ca^2+/CaM complexes with Fas-Pep1 and Fas-Pep2 prepared at 1:1 stoichiometry eluted at 11.3 and 11.2 mL, respectively (Fig 3A). […] The formation of complexes was confirmed by SDS-PAGE (Fig 3B). […] As we and others have shown previously, Ca^2+/CaM elutes at a smaller than expected volume due to its elongated dumbbell shape.[32, 42, 43]

Sequence: VQDTAEQKVQLLRNWHQLHGKKEAYDTLIKDLKKANLC [Fas-Pep2]
- conformation when bound to Ca^2+/CaM (NOESY) (Ca^2+/CaM [1]; 3D 15N-edited HSQC-NOESY): adopts an α-helical conformation upon binding to CaM
- conformation of free peptide (NMR) (Ca^2+/CaM [1]; 15N-Fas-Pep2, 1H-15N HSQC, 35°C, pH 7.0): lack of ordered structure
- conformation when bound to Ca^2+/CaM (chemical shift index, TALOS+) (Ca^2+/CaM [1]; prediction from measured chemical shifts): adopts an α-helical conformation upon binding to Ca^2+/CaM
- CSPs on Ca^2+/CaM-C (Ca^2+/CaM-C): significant CSPs for numerous residues
- CSPs on Ca^2+/CaM-N (Ca^2+/CaM-N): significant CSPs for numerous residues
- elution volume, free (Ca^2+/CaM [2]; ~50–100 μM): 15.2 mL
- elution volume of complex with Ca^2+/CaM (Ca^2+/CaM [2]; prepared at 1:1 stoichiometry): 11.2 mL
